Measured values taken from the NIST ThermoML archive (doi:10.1016/j.fluid.2006.09.025).

Experiment: osmotic coefficient (dimensionless); mn = molality of the nth substance listed, in mol/kg
Conditions: 298.15 K, Liquid, isopiestic method

CC[N+](CC)(CC)C(C)C.[I-] [triethylisopropylammonium iodide] + O
Conditions | osmotic coefficient
m1 = 0.0475 | 0.9777
m1 = 0.057 | 0.9749
m1 = 0.0757 | 0.9713
m1 = 0.0889 | 0.968
m1 = 0.0981 | 0.9643
m1 = 0.1471 | 0.9579
m1 = 0.1528 | 0.9563
m1 = 0.1597 | 0.9537
m1 = 0.1682 | 0.9525
m1 = 0.1838 | 0.9459
m1 = 0.2194 | 0.9398
m1 = 0.2793 | 0.9267
m1 = 0.3108 | 0.918
m1 = 0.3581 | 0.9067
m1 = 0.408 | 0.88
m1 = 0.4103 | 0.884
m1 = 0.4322 | 0.8735
m1 = 0.4691 | 0.8589
m1 = 0.5492 | 0.825
m1 = 0.6807 | 0.762
m1 = 0.6907 | 0.751
m1 = 0.7103 | 0.74
m1 = 0.8103 | 0.691
m1 = 0.9083 | 0.662
m1 = 0.9858 | 0.631
m1 = 1.081 | 0.589
m1 = 1.111 | 0.587
m1 = 1.22 | 0.559
m1 = 1.326 | 0.546
m1 = 1.388 | 0.541
m1 = 1.402 | 0.539
m1 = 1.428 | 0.535
m1 = 1.448 | 0.533
m1 = 1.462 | 0.53

CCCCCCC[N+](CC)(CC)CC.[I-] [heptyltriethylammonium iodide] + O
Conditions | osmotic coefficient
m1 = 0.0575 | 0.8694
m1 = 0.077 | 0.84
m1 = 0.0876 | 0.829
m1 = 0.1022 | 0.815
m1 = 0.1082 | 0.805
m1 = 0.1205 | 0.787
m1 = 0.1533 | 0.757
m1 = 0.1727 | 0.742
m1 = 0.175 | 0.736
m1 = 0.1805 | 0.723
m1 = 0.2592 | 0.67
m1 = 0.2917 | 0.642
m1 = 0.3136 | 0.635
m1 = 0.3583 | 0.614
m1 = 0.4282 | 0.58
m1 = 0.4477 | 0.577
m1 = 0.4858 | 0.553
m1 = 0.5029 | 0.548
m1 = 0.5121 | 0.54
m1 = 0.5894 | 0.52
m1 = 0.6973 | 0.486
m1 = 0.787 | 0.45
m1 = 0.8401 | 0.434
m1 = 0.89 | 0.427
m1 = 1.105 | 0.384
m1 = 1.341 | 0.34
m1 = 1.504 | 0.325
m1 = 1.803 | 0.297
m1 = 1.921 | 0.289
m1 = 2.205 | 0.263
m1 = 2.515 | 0.253
m1 = 2.79 | 0.247
m1 = 2.96 | 0.24
m1 = 3 | 0.242

CCCCCC[N+](CC)(CC)CC.[I-] [hexyltriethylammonium iodide] + O
Conditions | osmotic coefficient
m1 = 0.0542 | 0.9221
m1 = 0.0712 | 0.9085
m1 = 0.0797 | 0.9098
m1 = 0.0926 | 0.8987
m1 = 0.0971 | 0.8963
m1 = 0.107 | 0.8864
m1 = 0.1332 | 0.8718
m1 = 0.1502 | 0.8528
m1 = 0.1517 | 0.8493
m1 = 0.153 | 0.8537
m1 = 0.2121 | 0.819
m1 = 0.232 | 0.808
m1 = 0.2494 | 0.798
m1 = 0.2836 | 0.775
m1 = 0.3308 | 0.751
m1 = 0.3473 | 0.744
m1 = 0.3651 | 0.737
m1 = 0.3804 | 0.724
m1 = 0.3878 | 0.713
m1 = 0.4518 | 0.678
m1 = 0.5224 | 0.648
m1 = 0.5588 | 0.633
m1 = 0.5839 | 0.624
m1 = 0.6237 | 0.609
m1 = 0.7289 | 0.582
m1 = 0.8228 | 0.555
m1 = 0.9203 | 0.531
m1 = 1.101 | 0.487
m1 = 1.171 | 0.475
m1 = 1.275 | 0.454
m1 = 1.512 | 0.421
m1 = 1.84 | 0.375
m1 = 1.94 | 0.366
m1 = 2.04 | 0.356
m1 = 2.24 | 0.337
m1 = 2.344 | 0.329
